Assay results taken from patent publication US20250311727A1, “SUBSTITUTED 2-AMINOAZINES AND SALTS THEREOF, AND USE THEREOF AS HERBICIDAL ACTIVE SUBSTANCES” (BAYER AKTIENGESELLSCHAFT, priority 2022, published 2025).

Assays:
Type in all cases: in vivo
[1] = tested on: Alopecurus myosuroides; assay: Post-emergence herbicidal efficacy at 320 g/ha, ALOMY; settings: rated visually after about 3 weeks vs untreated controls, 100% = plants have died
Text: (§1) Unwanted plants/weeds: • ABUTH: Abutilon theophrasti • ALOMY: Alopecurus myosuroides • AMARE: Amaranthus retroflexus • DIGSA: Digitaria sanguinalis • ECHCG: Echinochloa crus-galli • KCHSC: Kochia scoparia • LOLRI: Lolium rigidum • MATIN: Matricaria inodora • POAAN: Poa annua • POLCO: Polygonum convolvulus • SETVI: Setaria viridis • STEME: Stellaria media • VERPE: Veronica persica • VIOTR: Viola tricolor A. Post-Emergence Herbicidal Efficacy at 320 g/ha
Seeds of mono- and dicotyledonous weed plants were placed in plastic pots in sandy loam soil (doubly sown with in each case one species of mono- or dicotyledonous weed plants per pot), covered with soil and cultivated in a greenhouse under controlled growth conditions. 2 to 3 weeks after sowing, the test plants were treated at the one-leaf stage. The compounds of the invention, formulated in the form of wettable powders (WP) or as emulsion concentrates (EC), were applied to the green parts of the plants as aqueous suspension or emulsion with addition of 0.5% additive at a water application rate equivalent to 600 litres per hectare. After the test plants had been kept in the greenhouse under optimum growth conditions for about 3 weeks, the activity of the preparations was rated visually in comparison to untreated controls.
(§2) For example, 100% activity=the plants have died, 0% activity=like control plants.
Tables A1 to A10 below show the effects of selected compounds of the general formula (I) according to Table 1 on various harmful plants and at an application rate corresponding to 320 g/ha, which were obtained by the trial procedure specified above.

[2] = tested on: Amaranthus retroflexus; assay: Post-emergence herbicidal efficacy at 320 g/ha, AMARE; settings: rated visually after about 3 weeks vs untreated controls, 100% = plants have died
In short: (§3)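 One-leaf-stage weeds, sandy loam pots, greenhouse; foliar spray of WP/EC, 0.5% additive, 600 L/ha water; visual rating at ~3 wk, 0–100% vs untreated.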

[3] = tested on: Digitaria sanguinalis; assay: Post-emergence herbicidal efficacy at 320 g/ha, DIGSA; settings: rated visually after about 3 weeks vs untreated controls, 100% = plants have died
In short: as §3

[4] = tested on: Echinochloa crus-galli; assay: Post-emergence herbicidal efficacy at 320 g/ha, ECHCG; settings: rated visually after about 3 weeks vs untreated controls, 100% = plants have died
In short: as §3

[5] = tested on: Kochia scoparia; assay: Post-emergence herbicidal efficacy at 320 g/ha, KCHSC; settings: rated visually after about 3 weeks vs untreated controls, 100% = plants have died
In short: as §3

[6] = tested on: Poa annua; assay: Post-emergence herbicidal efficacy at 320 g/ha, POAAN; settings: rated visually after about 3 weeks vs untreated controls, 100% = plants have died
In short: as §3

[7] = tested on: Setaria viridis; assay: Post-emergence herbicidal efficacy at 320 g/ha, SETVI; settings: rated visually after about 3 weeks vs untreated controls, 100% = plants have died
In short: as §3

[8] = tested on: Stellaria media; assay: Post-emergence herbicidal efficacy at 320 g/ha, STEME; settings: rated visually after about 3 weeks vs untreated controls, 100% = plants have died
In short: as §3

[9] = tested on: Veronica persica; assay: Post-emergence herbicidal efficacy at 320 g/ha, VERPE; settings: rated visually after about 3 weeks vs untreated controls, 100% = plants have died
In short: as §3

[10] = tested on: Alopecurus myosuroides; assay: Post-emergence herbicidal efficacy at 80 g/ha, ALOMY; settings: rated visually after about 3 weeks vs untreated controls, 100% = plants have died
Text: as §1
(§4) Seeds of monocotyledonous and dicotyledonous weeds and crop plants were placed in sandy loam in plastic or organic planting pots, covered with soil and cultivated in a greenhouse under controlled growth conditions. 2 to 3 weeks after sowing, the test plants were treated at the one-leaf stage. The compounds of the invention, formulated in the form of wettable powders (WP) or as emulsion concentrates (EC), were then sprayed onto the green parts of the plants as aqueous suspension or emulsion with addition of 0.5% additive at a water application rate of 600 l/ha (converted). After the test plants had been kept in the greenhouse under optimum growth conditions for about 3 weeks, the activity of the preparations was rated visually in comparison to untreated controls. For example, 100% activity=the plants have died, 0% activity=like control plants.
(§5) Tables B1 to B11 below show the effects of selected compounds of the general formula (I) according to Table 1 on various harmful plants and an application rate corresponding to 80 g/ha, which were obtained by the experimental procedure mentioned above.

[11] = tested on: Amaranthus retroflexus; assay: Post-emergence herbicidal efficacy at 80 g/ha, AMARE; settings: rated visually after about 3 weeks vs untreated controls, 100% = plants have died
In short: (§6)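 Post-emergence greenhouse test: one-leaf weeds sprayed with formulated compound (0.5% additive, 600 l/ha), visually rated about 3 weeks later against untreated controls.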

[12] = tested on: Digitaria sanguinalis; assay: Post-emergence herbicidal efficacy at 80 g/ha, DIGSA; settings: rated visually after about 3 weeks vs untreated controls, 100% = plants have died
Text: as §1, §4, §5

[13] = tested on: Veronica persica; assay: Post-emergence herbicidal efficacy at 80 g/ha, VERPE; settings: rated visually after about 3 weeks vs untreated controls, 100% = plants have died
In short: as §6

[14] = tested on: Viola tricolor; assay: Post-emergence herbicidal efficacy at 80 g/ha, VIOTR; settings: rated visually after about 3 weeks vs untreated controls, 100% = plants have died
In short: as §6

[15] = tested on: Abutilon theophrasti; assay: Pre-emergence herbicide efficacy at 320 g/ha, ABUTH; settings: scored visually after about 3 weeks vs untreated controls, 100% = plants have died
In short: (§7)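 Compound formulated as wettable powder or emulsion concentrate is applied onto covered, sown sandy loam soil with 0.5% additive. Plants grow under greenhouse conditions, and after roughly 3 weeks weed control is rated by eye as a percentage relative to untreated pots.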

[16] = tested on: Alopecurus myosuroides; assay: Pre-emergence herbicide efficacy at 320 g/ha, ALOMY; settings: scored visually after about 3 weeks vs untreated controls, 100% = plants have died
Text: as §1
Seeds of mono- and dicotyledonous weed plants were placed in plastic pots in sandy loam soil (doubly sown with one species each of mono- or dicotyledonous weed plants per pot) and covered with soil. The compounds of the invention, formulated in the form of wettable powders (WP) or as emulsion concentrates (EC), were then applied to the surface of the covering soil as aqueous suspension or emulsion with addition of 0.5% additive at a water application rate of 600 litres per hectare (converted). After the treatment, the pots were placed in a greenhouse and kept under good growth conditions for the test plants. After about 3 weeks, the efficacy of the preparations was scored visually in comparison with untreated controls as percentages.
as §2
Tables C1 to C12 below show the effects of selected compounds of the general formula (I) according to Table 1 on various harmful plants and at an application rate corresponding to 320 g/ha, which were obtained by the trial procedure specified above.

[17] = tested on: Amaranthus retroflexus; assay: Pre-emergence herbicide efficacy at 320 g/ha, AMARE; settings: scored visually after about 3 weeks vs untreated controls, 100% = plants have died
In short: as §7

[18] = tested on: Digitaria sanguinalis; assay: Pre-emergence herbicide efficacy at 320 g/ha, DIGSA; settings: scored visually after about 3 weeks vs untreated controls, 100% = plants have died
In short: as §7

[19] = tested on: Echinochloa crus-galli; assay: Pre-emergence herbicide efficacy at 320 g/ha, ECHCG; settings: scored visually after about 3 weeks vs untreated controls, 100% = plants have died
In short: as §7

[20] = tested on: Kochia scoparia; assay: Pre-emergence herbicide efficacy at 320 g/ha, KCHSC; settings: scored visually after about 3 weeks vs untreated controls, 100% = plants have died
In short: as §7

[21] = tested on: Matricaria inodora; assay: Pre-emergence herbicide efficacy at 320 g/ha, MATIN; settings: scored visually after about 3 weeks vs untreated controls, 100% = plants have died
In short: as §7

[22] = tested on: Poa annua; assay: Pre-emergence herbicide efficacy at 320 g/ha, POAAN; settings: scored visually after about 3 weeks vs untreated controls, 100% = plants have died
In short: as §7

[23] = tested on: Setaria viridis; assay: Pre-emergence herbicide efficacy at 320 g/ha, SETVI; settings: scored visually after about 3 weeks vs untreated controls, 100% = plants have died
In short: as §7

[24] = tested on: Stellaria media; assay: Pre-emergence herbicide efficacy at 320 g/ha, STEME; settings: scored visually after about 3 weeks vs untreated controls, 100% = plants have died
In short: as §7

[25] = tested on: Veronica persica; assay: Pre-emergence herbicide efficacy at 320 g/ha, VERPE; settings: scored visually after about 3 weeks vs untreated controls, 100% = plants have died
In short: as §7

[26] = tested on: Abutilon theophrasti; assay: Pre-emergence herbicide efficacy at 80 g/ha, ABUTH; settings: scored visually after about 3 weeks vs untreated controls, 100% = plants have died
Text: as §1
(§8) Seeds of monocotyledonous and dicotyledonous weed plants and crop plants were placed in plastic or organic planting pots and covered with soil. The compounds of the invention, formulated in the form of wettable powders (WP) or as emulsion concentrates (EC), were then applied to the surface of the covering soil as aqueous suspension or emulsion with addition of 0.5% additive at a water application rate equivalent to 600 l/ha. After the treatment, the pots were placed in a greenhouse and kept under good growth conditions for the test plants. After about 3 weeks, the efficacy of the preparations was scored visually in comparison with untreated controls as percentages. For example, 100% activity=the plants have died, 0% activity=like control plants.
(§9) Tables D1 to D12 below show the effects of selected compounds of the general formula (I) according to Table 1 on various harmful plants and an application rate corresponding to 80 g/ha, which were obtained by the experimental procedure mentioned above.

[27] = tested on: Alopecurus myosuroides; assay: Pre-emergence herbicide efficacy at 80 g/ha, ALOMY; settings: scored visually after about 3 weeks vs untreated controls, 100% = plants have died
Text: as §1, §8, §9

[28] = tested on: Amaranthus retroflexus; assay: Pre-emergence herbicide efficacy at 80 g/ha, AMARE; settings: scored visually after about 3 weeks vs untreated controls, 100% = plants have died
In short: (§10)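 Compounds are applied to soil covering sown seeds (aqueous suspension or emulsion, 0.5% additive, 600 l/ha), before emergence. Pots stay in the greenhouse for about 3 weeks. Damage is then judged by eye as % of control, 100% meaning plant death.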

[29] = tested on: Digitaria sanguinalis; assay: Pre-emergence herbicide efficacy at 80 g/ha, DIGSA; settings: scored visually after about 3 weeks vs untreated controls, 100% = plants have died
In short: as §10

[30] = tested on: Echinochloa crus-galli; assay: Pre-emergence herbicide efficacy at 80 g/ha, ECHCG; settings: scored visually after about 3 weeks vs untreated controls, 100% = plants have died
Text: as §1, §8, §9

[31] = tested on: Polygonum convolvulus; assay: Pre-emergence herbicide efficacy at 80 g/ha, POLCO; settings: scored visually after about 3 weeks vs untreated controls, 100% = plants have died
In short: as §10

[32] = tested on: Setaria viridis; assay: Pre-emergence herbicide efficacy at 80 g/ha, SETVI
In short: as §10

[33] = tested on: Veronica persica; assay: Pre-emergence herbicide efficacy at 80 g/ha, VERPE
In short: as §10

[34] = tested on: Viola tricolor; assay: Pre-emergence herbicide efficacy at 80 g/ha, VIOTR
In short: as §10

## Fc1cnc(Nc2cccc(F)c2-c2cc(C(F)F)no2)nc1 [Example 1-34]
[1]
  Post-emergence efficacy at 320 g/ha against ALOMY in %: 100%
[2]
  Post-emergence efficacy at 320 g/ha against AMARE in %: 100%
[3]
  Post-emergence efficacy at 320 g/ha against DIGSA in %: 100%
[4]
  Post-emergence efficacy at 320 g/ha against ECHCG in %: 100%
[5]
  Post-emergence efficacy at 320 g/ha against KCHSC in %: 100%
[6]
  Post-emergence efficacy at 320 g/ha against POAAN in %: 100%
[7]
  Post-emergence efficacy at 320 g/ha against SETVI in %: 90%
[8]
  Post-emergence efficacy at 320 g/ha against STEME in %: 100%
[9]
  Post-emergence efficacy at 320 g/ha against VERPE in %: 100%
[10]
  Post-emergence efficacy at 80 g/ha against ALOMY in %: 100%
[11]
  Post-emergence efficacy at 80 g/ha against AMARE in %: 100%
[12]
  Post-emergence efficacy at 80 g/ha against DIGSA in %: 80%
[13]
  Post-emergence efficacy at 80 g/ha against VERPE in %: 100%
[14]
  Post-emergence efficacy at 80 g/ha against VIOTR in %: 80%
[15]
  Pre-emergence efficacy at 320 g/ha against ABUTH in %: 100%
[16]
  Pre-emergence efficacy at 320 g/ha against ALOMY in %: 100%
[17]
  Pre-emergence efficacy at 320 g/ha against AMARE in %: 100%
[18]
  Pre-emergence efficacy at 320 g/ha against DIGSA in %: 100%
[19]
  Pre-emergence efficacy at 320 g/ha against ECHCG in %: 100%
[20]
  Pre-emergence efficacy at 320 g/ha against KCHSC in %: 100%
[21]
  Pre-emergence efficacy at 320 g/ha against MATIN in %: 100%
[22]
  Pre-emergence efficacy at 320 g/ha against POAAN in %: 100%
[23]
  Pre-emergence efficacy at 320 g/ha against SETVI in %: 100%
[24]
  Pre-emergence efficacy at 320 g/ha against STEME in %: 100%
[25]
  Pre-emergence efficacy at 320 g/ha against VERPE in %: 100%
[26]
  Pre-emergence efficacy at 80 g/ha against ABUTH in %: 90%
[27]
  Pre-emergence efficacy at 80 g/ha against ALOMY in %: 90%
[28]
  Pre-emergence efficacy at 80 g/ha against AMARE in %: 100%
[29]
  Pre-emergence efficacy at 80 g/ha against DIGSA in %: 100%
[30]
  Pre-emergence efficacy at 80 g/ha against ECHCG in %: 90%
[31]
  Pre-emergence efficacy at 80 g/ha against POLCO in %: 90%
[32]
  Pre-emergence efficacy against SETVI: 100%
[33]
  Pre-emergence efficacy against VERPE: 100%
[34]
  Pre-emergence efficacy against VIOTR: 100%
